The target of one data set is MMP3 (Homo sapiens (Human), UniProt P08254). The data set is described as follows: Selectivity assay: inhibition of MMPs. The data set is classed as biochemical. How it is done: (§1) MMPs-1, -2, -3, -7, -8 and -14 along with the SensoLyte 520 Generic MMP Activity Kit*Fluorimetric* were purchased from AnaSpec (Fremont, CA, USA). The assay was performed as described previously (Schönauer E, Kany A M, Haupenthal J, Hüsecken K, Hoppe I J, Voos K, et al. Discovery of a Potent Inhibitor Class with High Selectivity toward Clostridial Collagenases. J Am Chem Soc. 2017 Sep. 13; 139(36):12696-703) using batimastat as a positive control according to the guidelines of the manufacturer.
Chain of MMP3 (P08254 100-477): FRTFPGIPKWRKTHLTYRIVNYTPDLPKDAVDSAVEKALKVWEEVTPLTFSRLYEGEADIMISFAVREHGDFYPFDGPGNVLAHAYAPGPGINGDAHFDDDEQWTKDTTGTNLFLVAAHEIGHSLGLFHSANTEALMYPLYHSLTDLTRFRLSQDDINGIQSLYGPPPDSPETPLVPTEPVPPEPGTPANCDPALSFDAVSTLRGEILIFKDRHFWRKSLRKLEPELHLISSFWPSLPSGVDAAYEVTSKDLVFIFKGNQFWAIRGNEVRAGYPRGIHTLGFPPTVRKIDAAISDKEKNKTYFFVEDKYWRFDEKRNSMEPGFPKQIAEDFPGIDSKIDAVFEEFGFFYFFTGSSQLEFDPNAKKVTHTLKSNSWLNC

The next data set deals with MMP1 (Homo sapiens (Human), UniProt P03956). The data set is described as follows: Selectivity assay: inhibition of MMPs. The format is biochemical. How it is done: as §1
Chain of MMP1 (P03956 100-469): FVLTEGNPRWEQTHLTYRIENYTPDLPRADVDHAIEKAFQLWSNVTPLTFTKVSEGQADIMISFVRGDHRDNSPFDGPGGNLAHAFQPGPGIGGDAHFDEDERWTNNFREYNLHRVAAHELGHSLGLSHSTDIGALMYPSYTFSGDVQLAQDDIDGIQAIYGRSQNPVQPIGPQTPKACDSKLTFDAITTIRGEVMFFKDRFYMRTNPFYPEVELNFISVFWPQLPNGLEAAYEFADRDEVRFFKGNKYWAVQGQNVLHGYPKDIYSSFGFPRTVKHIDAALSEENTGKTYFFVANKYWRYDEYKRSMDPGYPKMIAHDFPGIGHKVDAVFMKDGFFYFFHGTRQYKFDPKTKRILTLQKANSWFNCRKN
The next data set addresses MMP2 (Homo sapiens (Human), UniProt P08253). The data set is described as follows: Selectivity assay: inhibition of MMPs. The data set is classed as biochemical. How it is done:
as §1

A short description of another data set: in vitro. The format is in vitro ADME. The conditions noted are these: mouse, s9.
For a further data set, the target named is ADAM-17 (TACE) (Homo sapiens (Human), UniProt P78536). Put plainly: ADAM-17 (TACE) inhibitor screening assay. The format is biochemical. Particulars: read-out: Selectivity IC50 TACE. The procedure: The ADAM-17 (TACE) Inhibitor Screening Assay Kit was purchased from Sigma-Aldrich. The assay was performed according to the guidelines of the manufacturer using ilomastat as a positive control. Fluorescence signals were measured in a CLARIOstar plate reader (BMG Labtech).
Chain of ADAM-17 (TACE) (P78536 whole entry, looked up): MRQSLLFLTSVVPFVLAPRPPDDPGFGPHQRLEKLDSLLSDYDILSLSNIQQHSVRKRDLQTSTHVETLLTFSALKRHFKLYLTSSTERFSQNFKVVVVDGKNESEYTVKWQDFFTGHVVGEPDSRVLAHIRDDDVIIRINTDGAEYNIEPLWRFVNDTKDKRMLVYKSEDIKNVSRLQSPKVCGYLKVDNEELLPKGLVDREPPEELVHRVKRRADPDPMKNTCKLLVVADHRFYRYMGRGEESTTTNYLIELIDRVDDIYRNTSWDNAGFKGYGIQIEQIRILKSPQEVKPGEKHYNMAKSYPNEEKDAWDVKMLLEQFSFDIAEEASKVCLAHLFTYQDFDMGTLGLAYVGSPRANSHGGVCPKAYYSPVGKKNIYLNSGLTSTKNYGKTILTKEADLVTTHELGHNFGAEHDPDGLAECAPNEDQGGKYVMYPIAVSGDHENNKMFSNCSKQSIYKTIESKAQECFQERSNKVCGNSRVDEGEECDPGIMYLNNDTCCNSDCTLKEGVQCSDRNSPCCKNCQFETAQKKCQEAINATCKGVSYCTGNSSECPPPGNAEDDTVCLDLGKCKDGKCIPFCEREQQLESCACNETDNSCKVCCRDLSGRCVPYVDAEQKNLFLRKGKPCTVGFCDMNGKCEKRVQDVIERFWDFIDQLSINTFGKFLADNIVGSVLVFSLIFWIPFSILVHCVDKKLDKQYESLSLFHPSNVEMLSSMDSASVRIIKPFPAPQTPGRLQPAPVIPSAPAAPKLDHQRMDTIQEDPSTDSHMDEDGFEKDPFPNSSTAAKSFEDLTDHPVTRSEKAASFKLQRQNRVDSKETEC

Data set [1] is described as follows: Kinetic turbidimetric solubility assay. The format is physicochemical. Particulars: PBS, aqueous buffer, kinetic from dmso stock.
The test system of data set [2] is A549 cells challenged with P. aeruginosa PAO1 culture supernatant. Put plainly: A549 cell-based assay, LasB-related cytotoxicity (MTT). Also on record: species or system human. The conditions noted are these: 10% (v/v) PAO1 csn. How it is done:
The human lung adenocarcinoma cell line (A549) was cultured in Dulbecco's Modified Eagle Medium (DMEM), containing 10% Fetal Bovine Serum (FBS) and 1% penicillin-streptomycin mixture. Cells were maintained according to standard cell culture procedures.
To conduct the assay, 2.5-3.5*10^3 cells/well were seeded into a flat bottom 96-well plate (Corning™ Costar™) and incubated at 37° C.+5% CO2 for 24 hours. On the following day, several concentrations of the compound 169 were tested against 10% (v/v) Pseudomonas aeruginosa PAO1 (DSM 22644, ATCC 15692) culture supernatant diluted in DMEM starting from 1.25 μM. The compound was initially dissolved in 99.9% Dimethyl sulfoxide (DMSO) and a final assay concentration of 0.5% (v/v) was applied to minimize the proteolytic effect of DMSO on the bacterial culture supernatant. In addition, cells were challenged with 10% (v/v) of AlasB PAO1 to confirm the toxic effect derived from LasB, and DMEM was included as a control without any treatment. Plates were incubated at 37° C.+5% CO2 for 24 hours prior to the MTT assay.
The graph represents three independent experiments ±SD. One-way ANOVA statistical analysis was performed following Dunnett's multiple comparisons test, comparing the mean value of each concentration to the mean value of PAO1 without any treatment with compounds (**** p≤0.0001, ** p≤0.01, * p≤0.05).

A further data set deals with LasB (Pseudomonas aeruginosa (strain ATCC 15692 / DSM 22644 / CIP 104116 / JCM 14847 / LMG 12228 / 1C / PRS 101 / PAO1), UniProt P14756). Put plainly: In vitro LasB activity assay (fluorogenic substrate). Particulars: LasB 0.3 nM, substrate 150 μM, mean ± SD. The format is biochemical. In a few lines:
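LasB (0.3 nM) preincubated 15 min at 37 °C with compound, then 150 µM Abz-Ala-Gly-Leu-Ala-p-nitrobenzylamide added in 50 mM Tris pH 7.2, 2.5 mM CaCl2, 0.075% Pluronic F-127, 5% DMSO. Fluorescence (ex 340, em 415 nm) followed 60 min at 37 °C. IC50 from blank-corrected v/v0 slopes, nonlinear regression, Hill slope fixed at 1.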

Chain of LasB (P14756 198-498): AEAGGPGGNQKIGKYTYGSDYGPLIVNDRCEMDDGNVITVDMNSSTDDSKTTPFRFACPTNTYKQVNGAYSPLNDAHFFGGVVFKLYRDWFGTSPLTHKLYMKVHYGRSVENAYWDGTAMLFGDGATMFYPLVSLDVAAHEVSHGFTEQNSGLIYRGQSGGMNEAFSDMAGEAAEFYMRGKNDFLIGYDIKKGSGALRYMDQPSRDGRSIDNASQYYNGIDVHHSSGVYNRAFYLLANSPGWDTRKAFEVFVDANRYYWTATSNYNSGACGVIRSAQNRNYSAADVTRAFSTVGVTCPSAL
Chain of MMP2 (P08253 110-660): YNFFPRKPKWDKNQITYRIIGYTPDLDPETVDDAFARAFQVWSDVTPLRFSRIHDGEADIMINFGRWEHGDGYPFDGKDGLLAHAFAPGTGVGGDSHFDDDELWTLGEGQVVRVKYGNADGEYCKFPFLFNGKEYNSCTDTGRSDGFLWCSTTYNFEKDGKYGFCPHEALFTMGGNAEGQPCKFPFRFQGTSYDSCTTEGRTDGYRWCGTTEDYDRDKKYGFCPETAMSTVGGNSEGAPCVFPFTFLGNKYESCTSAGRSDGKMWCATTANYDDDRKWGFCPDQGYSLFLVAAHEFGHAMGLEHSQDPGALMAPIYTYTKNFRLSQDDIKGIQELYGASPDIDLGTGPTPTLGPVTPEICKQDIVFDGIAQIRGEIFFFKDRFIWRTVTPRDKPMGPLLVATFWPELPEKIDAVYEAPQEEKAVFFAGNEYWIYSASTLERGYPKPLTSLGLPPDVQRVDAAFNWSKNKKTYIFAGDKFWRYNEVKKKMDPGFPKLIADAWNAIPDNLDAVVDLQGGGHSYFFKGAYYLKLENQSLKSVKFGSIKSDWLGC

With `CC(C)CC(C(=O)NO)C(=O)Nc1ccc(Cn2cc(CNS(=O)(=O)CC(C)C)nn2)cc1` (stereo not drawn) [Compound 169, 2-(Hydroxycarbamoyl)-N-[4-[[4-[(isobutylsulfonylamino)methyl]triazol-1-yl]methyl]phenyl]-4-methyl-pentanamide], the IC50 against MMP3 is > 100 µM; on MMP1 it was > 100 µM; on MMP2 it was > 100 µM; at ADAM-17 (TACE) it was > 100 µM; against LasB, 5.2 ± 0.2 nM. Further, the half-life at 1 μM in the data set “in vitro” is > 120 min. Further, the solubility at 5 min in data set [1] is > 200 µM. For the same molecule, in data set [2] (24 h, MTT), the “Reduction of LasB-related cytotoxicity in A549 cells” value was “excellent potency”. Also, the “Dose-response of LasB inhibition in A549 cells” value in data set [2] (from 1.25 μM) was “Dose-dependent inhibition of LasB in a low micromolar to nanomolar range”.

The values above are taken from patent US20250170104A1, “INHIBITORS OF PSEUDOMONAS AERUGINOSA VIRULENCE FACTOR Lasß” (priority 2022, published 2025).
